From PubChem BioAssay (NCI)
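Five concentrations, 48 hours, 96-well plates. At the TGI there is no net growth.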

Key:
Test in all cases: NCI tumour cell line growth inhibition, 48 h
MDA-MB-435 = tested on: MDA-MB-435
SF-539 CNS = tested on: SF-539 CNS
MALME-3M melanoma = tested on: MALME-3M melanoma
COLO 205 colon = tested on: COLO 205 colon
SK-MEL-5 melanoma = tested on: SK-MEL-5 melanoma
MDA-N = tested on: MDA-N
SR leukemia = tested on: SR leukemia
M14 melanoma = tested on: M14 melanoma
ACHN renal = tested on: ACHN renal
OVCAR-5 ovarian = tested on: OVCAR-5 ovarian
A549 NSCLC = tested on: A549 NSCLC
HOP-92 NSCLC = tested on: HOP-92 NSCLC
EKVX NSCLC = tested on: EKVX NSCLC
HCC-2998 colon = tested on: HCC-2998 colon
UACC-257 melanoma = tested on: UACC-257 melanoma
SN12C renal = tested on: SN12C renal
SF-295 CNS = tested on: SF-295 CNS
NCI-H226 lung = tested on: NCI-H226 lung
CAKI-1 renal = tested on: CAKI-1 renal
MDA-MB-231 breast = tested on: MDA-MB-231 breast
HL-60(TB) leukemia = tested on: HL-60(TB) leukemia
IGROV1 ovarian = tested on: IGROV1 ovarian
NCI-H522 lung = tested on: NCI-H522 lung
TK-10 renal = tested on: TK-10 renal
OVCAR-3 ovarian = tested on: OVCAR-3 ovarian
SF-268 CNS = tested on: SF-268 CNS
NCI-H460 lung = tested on: NCI-H460 lung
HOP-62 NSCLC = tested on: HOP-62 NSCLC
SNB-75 CNS = tested on: SNB-75 CNS
KM12 colon = tested on: KM12 colon
NCI-H23 lung = tested on: NCI-H23 lung
A498 renal = tested on: A498 renal
T-47D breast = tested on: T-47D breast
U251 CNS = tested on: U251 CNS
UO-31 renal = tested on: UO-31 renal
BT-549 breast = tested on: BT-549 breast
HS 578T breast = tested on: HS 578T breast
LOX IMVI melanoma = tested on: LOX IMVI melanoma
OVCAR-4 ovarian = tested on: OVCAR-4 ovarian
RXF 393 renal = tested on: RXF 393 renal
HCT-116 colon = tested on: HCT-116 colon
SK-MEL-2 melanoma = tested on: SK-MEL-2 melanoma
NCI/ADR-RES ovarian = tested on: NCI/ADR-RES ovarian
SK-MEL-28 melanoma = tested on: SK-MEL-28 melanoma
786-0 renal = tested on: 786-0 renal
PC-3 prostate = tested on: PC-3 prostate
MCF7 breast = tested on: MCF7 breast
SW-620 colon = tested on: SW-620 colon
HCT-15 colon = tested on: HCT-15 colon
DU-145 prostate = tested on: DU-145 prostate
K-562 leukemia = tested on: K-562 leukemia
SK-OV-3 ovarian = tested on: SK-OV-3 ovarian
CCRF-CEM leukemia = tested on: CCRF-CEM leukemia
SNB-19 CNS = tested on: SNB-19 CNS
MOLT-4 leukemia = tested on: MOLT-4 leukemia
RPMI-8226 leukemia = tested on: RPMI-8226 leukemia
OVCAR-8 ovarian = tested on: OVCAR-8 ovarian
UACC-62 melanoma = tested on: UACC-62 melanoma
HT29 colon = tested on: HT29 colon

Compound: OC(COc1cccc2ccccc12)CN1CCOCC1 (stereo not drawn)
- TGI (MDA-MB-435): > 100 µM
- TGI (SF-539 CNS): > 100 µM
- TGI (MALME-3M melanoma): > 100 µM
- TGI (COLO 205 colon): > 100 µM
- TGI (SK-MEL-5 melanoma): > 100 µM
- TGI (MDA-N): > 100 µM
- TGI (SR leukemia): > 100 µM
- TGI (M14 melanoma): > 100 µM
- TGI (ACHN renal): > 100 µM
- TGI (OVCAR-5 ovarian): > 100 µM
- TGI (A549 NSCLC): > 100 µM
- TGI (HOP-92 NSCLC): 98.9 µM
- TGI (EKVX NSCLC): > 100 µM
- TGI (HCC-2998 colon): > 100 µM
- TGI (UACC-257 melanoma): > 100 µM
- TGI (SN12C renal): > 100 µM
- TGI (SF-295 CNS): > 100 µM
- TGI (NCI-H226 lung): > 100 µM
- TGI (CAKI-1 renal): > 100 µM
- TGI (MDA-MB-231 breast): > 100 µM
- TGI (HL-60(TB) leukemia): > 100 µM
- TGI (IGROV1 ovarian): > 100 µM
- TGI (NCI-H522 lung): > 100 µM
- TGI (TK-10 renal): > 100 µM
- TGI (OVCAR-3 ovarian): > 100 µM
- TGI (SF-268 CNS): > 100 µM
- TGI (NCI-H460 lung): > 100 µM
- TGI (HOP-62 NSCLC): > 100 µM
- TGI (SNB-75 CNS): > 100 µM
- TGI (KM12 colon): > 100 µM
- TGI (NCI-H23 lung): > 100 µM
- TGI (A498 renal): > 100 µM
- TGI (T-47D breast): > 100 µM
- TGI (U251 CNS): > 100 µM
- TGI (UO-31 renal): > 100 µM
- TGI (BT-549 breast): > 100 µM
- TGI (HS 578T breast): > 100 µM
- TGI (LOX IMVI melanoma): > 100 µM
- TGI (OVCAR-4 ovarian): > 100 µM
- TGI (RXF 393 renal): > 100 µM
- TGI (HCT-116 colon): > 100 µM
- TGI (SK-MEL-2 melanoma): > 100 µM
- TGI (NCI/ADR-RES ovarian): > 100 µM
- TGI (SK-MEL-28 melanoma): > 100 µM
- TGI (786-0 renal): > 100 µM
- TGI (PC-3 prostate): > 100 µM
- TGI (MCF7 breast): > 100 µM
- TGI (SW-620 colon): > 100 µM
- TGI (HCT-15 colon): > 100 µM
- TGI (DU-145 prostate): > 100 µM
- TGI (K-562 leukemia): > 100 µM
- TGI (SK-OV-3 ovarian): > 100 µM
- TGI (CCRF-CEM leukemia): > 100 µM
- TGI (SNB-19 CNS): > 100 µM
- TGI (MOLT-4 leukemia): > 100 µM
- TGI (RPMI-8226 leukemia): > 100 µM
- TGI (OVCAR-8 ovarian): > 100 µM
- TGI (UACC-62 melanoma): > 100 µM
- TGI (HT29 colon): > 100 µM

Compound: C=C1c2nc3ccccc3n2C=C(c2ccc(C)cc2)N1c1ccccc1
- TGI (MDA-MB-435): 10.7 µM
- TGI (SF-539 CNS): 7.46 µM
- TGI (MALME-3M melanoma): > 43.3 µM
- TGI (COLO 205 colon): > 33.2 µM
- TGI (SK-MEL-5 melanoma): 31.9 µM
- TGI (MDA-N): 4.39 µM
- TGI (SR leukemia): 6.82 µM
- TGI (M14 melanoma): > 61.2 µM
- TGI (ACHN renal): > 100 µM
- TGI (OVCAR-5 ovarian): > 100 µM
- TGI (A549 NSCLC): > 100 µM
- TGI (HOP-92 NSCLC): > 100 µM
- TGI (EKVX NSCLC): > 40.6 µM
- TGI (HCC-2998 colon): 10.7 µM
- TGI (UACC-257 melanoma): > 100 µM
- TGI (SN12C renal): > 100 µM
- TGI (SF-295 CNS): 13.6 µM
- TGI (NCI-H226 lung): 15.3 µM
- TGI (CAKI-1 renal): > 100 µM
- TGI (MDA-MB-231 breast): > 53.6 µM
- TGI (HL-60(TB) leukemia): 16.3 µM
- TGI (IGROV1 ovarian): > 100 µM
- TGI (NCI-H522 lung): 25.2 µM
- TGI (TK-10 renal): > 100 µM
- TGI (OVCAR-3 ovarian): > 40.9 µM
- TGI (SF-268 CNS): > 100 µM
- TGI (NCI-H460 lung): 27.1 µM
- TGI (HOP-62 NSCLC): > 100 µM
- TGI (SNB-75 CNS): 15.9 µM
- TGI (KM12 colon): 22 µM
- TGI (NCI-H23 lung): > 100 µM
- TGI (A498 renal): > 100 µM
- TGI (T-47D breast): > 100 µM
- TGI (U251 CNS): 68.2 µM
- TGI (UO-31 renal): > 100 µM
- TGI (BT-549 breast): > 86.7 µM
- TGI (HS 578T breast): > 30.6 µM
- TGI (LOX IMVI melanoma): 66 µM
- TGI (OVCAR-4 ovarian): > 100 µM
- TGI (RXF 393 renal): > 44 µM
- TGI (HCT-116 colon): > 81 µM
- TGI (SK-MEL-2 melanoma): > 46.1 µM
- TGI (NCI/ADR-RES ovarian): > 29.1 µM
- TGI (SK-MEL-28 melanoma): > 100 µM
- TGI (786-0 renal): > 59.9 µM
- TGI (PC-3 prostate): > 79.5 µM
- TGI (MCF7 breast): > 100 µM
- TGI (SW-620 colon): > 100 µM
- TGI (HCT-15 colon): > 38 µM
- TGI (DU-145 prostate): > 100 µM
- TGI (K-562 leukemia): > 100 µM
- TGI (SK-OV-3 ovarian): > 100 µM
- TGI (CCRF-CEM leukemia): > 54.8 µM
- TGI (SNB-19 CNS): > 100 µM
- TGI (MOLT-4 leukemia): 99 µM
- TGI (RPMI-8226 leukemia): > 34.5 µM
- TGI (OVCAR-8 ovarian): > 63.4 µM
- TGI (UACC-62 melanoma): > 100 µM
- TGI (HT29 colon): 9.77 µM
